# Target: T1, HIV protease (Human immunodeficiency virus type 1 group M subtype B, UniProt P04585)
# T1 construct: A third viral enzyme known as protease then cleaves the polyproteins
# Assay: Enzymatic Assay for Determining the Inhibition Constant (Ki) of Synthetic Compounds Targeting the HIV Protease (fluorometric FRET assay)
# Assay type: biochemical
# Conditions: not given
# In short: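 Fluorometric FRET assay following protease cleavage of an EDANS/DABCYL-labelled substrate. Initial velocities without (Vo) and with inhibitor (Vi) measured; Ki derived from the Henderson equation using inhibitor and substrate concentrations and Km.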
row,SMILES,Ki
1,"COC(=O)[C@H](CCCCNC(=O)[C@H](Cc1ccccc1)NS(=O)(=O)c1ccc(C)cc1)N(CC(C)C)S(=O)(=O)c1ccc(C)cc1 [Example 68, Nα-Isobutyl-Nα-(4-methylbenzenesulfonyl)-Nε-[N′α-(4-methylbenzenesulfonyl)-L-phenylalanyl]-L-lysine Methyl Ester]",> 300 nM
2,"COC(=O)[C@H](CCCCNC(=O)[C@H](Cc1c[nH]c2ccccc12)NS(=O)(=O)c1ccc(C)cc1)N(CC(C)C)S(=O)(=O)c1ccc(C)cc1 [Example 69, Nα-Isobutyl-Nα-(4-methylbenzenesulfonyl)-Nε-[N′α-(4-methylbenzenesulfonyl)-L-tryptophanyl]-L-lysine Methyl Ester]",> 300 nM
3,"COC(=O)[C@H](CCCCNC(=O)[C@H](Cc1ccccc1)NC(=O)c1ccccc1)N(CC(C)C)S(=O)(=O)c1ccc(C)cc1 [Example 70, Nα-Isobutyl-Nα-(4-methylbenzenesulfonyl)-Nε-(N′α-benzoyl-L-phenylalanyl)-L-lysine Methyl Ester]",> 300 nM
4,"COC(=O)[C@H](CCCCNC(=S)[C@H](Cc1ccccc1)NS(=O)(=O)c1ccc(C)cc1)N(CC(C)C)S(=O)(=O)c1ccc(C)cc1 [Example 71, Nα-Isobutyl-Nα-(4-methylbenzenesulfonyl)-Nε-[N′α-(4-methylbenzenesulfonyl)-L-thiophenylalanyl]-L-lysine Methyl Ester]",> 300 nM
5,"Cc1ccc(S(=O)(=O)N[C@@H](Cc2ccccc2)C(=S)NCCCC[C@@H](C(=O)O)N(CC(C)C)S(=O)(=O)c2ccc(C)cc2)cc1 [Example 72, Nα-Isobutyl-Nα-(4-methylbenzenesulfonyl)-Nε-[N′α-(4-methylbenzenesulfonyl)-L-thiophenylalanyl]-L-lysine]",33 nM
6,"Cc1ccc(S(=O)(=O)N[C@@H](Cc2c[nH]c3ccccc23)C(=S)NCCCC[C@@H](C(=O)O)N(CC(C)C)S(=O)(=O)c2ccc(C)cc2)cc1 [Example 73, Nα-Isobutyl-Nα-(4-methylbenzenesulfonyl)-Nε-[N′α-(4-methylbenzenesulfonyl)-L-thiotryptophanyl]-L-lysine]",14 nM
7,"Cc1ccc(S(=O)(=O)N(CC(C)C)[C@@H](CCCCNC(=S)[C@H](Cc2c[nH]c3ccccc23)NS(=O)(=O)c2ccccc2)C(=O)O)cc1 [Example 74, Nα-Isobutyl-Nα-(4-methylbenzenesulfonyl)-Nε-(N′α-benzenesulfonyl-L-thiotryptophanyl)-L-lysine]",4.8 nM
8,"COC(=O)[C@H](CCCCNC(=S)[C@H](Cc1c[nH]c2ccccc12)NS(=O)(=O)c1ccc(C)cc1)N(CC(C)C)S(=O)(=O)c1ccc(C)cc1 [Example 75, Nα-Isobutyl-Nα-(4-methylbenzenesulfonyl)-Nε-[N′α-(4-methylbenzenesulfonyl)-L-thiotryptophanyl]-L-lysine Methyl Ester]",> 300 nM
9,"COC(=O)[C@H](CCCCNC(=S)[C@H](Cc1ccccc1)NC(=S)c1ccccc1)N(CC(C)C)S(=O)(=O)c1ccc(C)cc1 [Example 76, Nα-Isobutyl-Nα-(4-methylbenzenesulfonyl)-Nε-(N′α-thiobenzoyl-L-thiophenylalanyl)-L-lysine Methyl Ester]",> 300 nM
10,"Cc1ccc(S(=O)(=O)N(CC(C)C)[C@@H](CCCCNC(=S)[C@H](Cc2ccccc2)NC(=S)c2ccccc2)C(=O)O)cc1 [Example 77, Nα-Isobutyl-Nα-(4-methylbenzenesulfonyl)-Nε-(N′α-thiobenzoyl-L-thiophenylalanyl)-L-lysine]",212 nM
11,"Cc1ccc(S(=O)(=O)N(CC(C)C)[C@@H](CCCCNC(=O)[C@H](Cc2ccccc2)NC(=O)OC(C)(C)C)C(=O)O)cc1 [Example 78, Nα-Isobutyl-Nα-(4-methylbenzenesulfonyl)-Nε-(N′α-tert-butoxycarbonyl-L-phenylalanyl)-L-lysine]",2.5 nM
12,"Cc1ccc(S(=O)(=O)N(CC(C)C)[C@@H](CCCCNC(=O)[C@@H](N)Cc2ccccc2)C(=O)O)cc1 [Example 79, Nα-Isobutyl-Nα-(4-methylbenzenesulfonyl)-Nε-(L-phenylalanyl)-L-lysine]",1.5 nM
13,"Cc1ccc(S(=O)(=O)N(CC(C)C)C(CCCCNC(=O)C(Cc2ccccc2)NC(=O)OC2CCOC2)C(=O)O)cc1 [Example 80, Nα-Isobutyl-Nα-(4-methylbenzenesulfonyl)-Nε-[N′α-(carbotetrahydro-3-furanyloxy)-L-phenylalanyl]-L-lysine]",1.4 nM
14,"Cc1ccc(S(=O)(=O)N(CC(C)C)[C@@H](CCCCNC(=O)[C@H](Cc2ccccc2)N(C)C(=O)OC(C)(C)C)C(=O)O)cc1 [Example 81, Nα-Isobutyl-Nα-(4-methylbenzenesulfonyl)-Nε-(N′α-tert-butoxycarbonyl-N′α-methyl-L-phenylalanyl)-L-lysine]",3.8 nM
15,"CSCC[C@H](NC(=O)OC(C)(C)C)C(=O)NCCCC[C@@H](C(=O)O)N(CC(C)C)S(=O)(=O)c1ccc(C)cc1 [Example 82, Nα-Isobutyl-Nα-(4-methylbenzenesulfonyl)-Nε-(N′α-tert-butoxycarbonyl-L-methionyl)-L-lysine]",65 nM
16,"Cc1ccc(S(=O)(=O)N(CC(C)C)[C@@H](CCCCNC(=O)[C@@H](NC(=O)OC(C)(C)C)[C@@H](C)OCc2ccccc2)C(=O)O)cc1 [Example 84, Nα-Isobutyl-Nα-(4-methylbenzenesulfonyl)-Nε-(N′α-tert-butoxyearbonyl-O-benzyl-L-threonyl)-L-lysine]",163 nM
17,"Cc1ccc(S(=O)(=O)N(CC(C)C)[C@@H](CCCCNC(=O)[C@H](Cc2cn(Cc3ccccc3)cn2)NC(=O)OC(C)(C)C)C(=O)O)cc1 [Example 85, Nα-Isobutyl-Nα-(4-methylbenzenesulfonyl)-Nε-(N′α-tert-butoxycarbonyl-Nτ-benzyl-L-histidinyl)-L-lysine]",124 nM
18,"Cc1ccc(S(=O)(=O)N(CC(C)C)[C@@H](CCCCNC(=O)[C@H](Cc2ccc(OCc3ccccc3)cc2)NC(=O)OC(C)(C)C)C(=O)O)cc1 [Example 87, Nα-Isobutyl-Nα-(4-methylbenzenesulfonyl)-Nε-(N′α-tert-butoxycarbonyl-O-benzyl-L-tyrosyl)-L-lysine]",49 nM
19,"CN[C@@H](Cc1ccccc1)C(=O)NCCCC[C@@H](C(=O)O)N(CC(C)C)S(=O)(=O)c1ccc(C)cc1 [Example 88, Nα-Isobutyl-Nα-(4-methylbenzenesulfonyl)-Nε-(N′α-methyl-L-phenylalanyl)-L-lysine]",2.1 nM
20,"CSCC[C@H](N)C(=O)NCCCC[C@@H](C(=O)O)N(CC(C)C)S(=O)(=O)c1ccc(C)cc1 [Example 89, Nα-Isobutyl-Nα-(4-methylbenzenesulfonyl)-Nε-(L-methionyl)-L-lysine]",33 nM
21,"Cc1ccc(CSC[C@H](N)C(=O)NCCCC[C@@H](C(=O)O)N(CC(C)C)S(=O)(=O)c2ccc(C)cc2)cc1 [Example 90, Nα-Isobutyl-Nα-(4-methylbenzenesulfonyl)-Nε-[S-(4-methylbenzyl)-L-cysteinyl]-L-lysine]",29 nM
22,"Cc1ccc(S(=O)(=O)N(CC(C)C)[C@@H](CCCCNC(=O)[C@@H](N)[C@@H](C)OCc2ccccc2)C(=O)O)cc1 [Example 91, Nα-Isobutyl-Nα-(4-methylbenzenesulfonyl)-Nε-(O-benzyl-L-threonyl)-L-lysine]",10 nM
23,"Cc1ccc(S(=O)(=O)N(CC(C)C)[C@@H](CCCCNC(=O)[C@@H](N)Cc2cn(Cc3ccccc3)cn2)C(=O)O)cc1 [Example 92, Nα-Isobutyl-Nα-(4-methylbenzenesulfonyl)-Nε-(Nτ-benzyl-L-histidinyl)-L-lysine]",> 300 nM
24,"Cc1ccc(S(=O)(=O)N(CC(C)C)[C@@H](CCCCNC(=O)[C@@H](N)Cc2c[nH]c3ccccc23)C(=O)O)cc1 [Example 93, Nα-Isobutyl-Nα-(4-methylbenzenesulfonyl)-Nε-(L-tryptophanyl)-L-lysine]",2.1 nM
25,"Cc1ccc(S(=O)(=O)N(CC(C)C)[C@@H](CCCCNC(=O)[C@@H](N)Cc2ccc(OCc3ccccc3)cc2)C(=O)O)cc1 [Example 94, Nα-Isobutyl-Nα-(4-methylbenzenesulfonyl)-Nε-(O-benzyl-L-tyrosyl)-L-lysine]",177 nM
26,"Cc1ccc(S(=O)(=O)N(CC(C)C)[C@H](CO)CCCCNC(=O)[C@H](Cc2ccccc2)NC(=O)c2ccccc2)cc1 [Example 95, (2S,2′S) 2-N-Isobutyl-2-N-(4-methylbenzenesulfonyl)-6-N-(N′α-benzoyl-S-phenylalanyl)-2,6-diaminohexanol]",54 nM
27,"Cc1ccc(S(=O)(=O)N[C@@H](Cc2ccccc2)C(=O)NCCCC[C@@H](CO)N(CC(C)C)S(=O)(=O)c2ccc(C)cc2)cc1 [Example 96, (2S,2′S) 2-N-Isobutyl-2-N-(4-methylbenzenesulfonyl)-6-N-[N′α-(4-methylbenzenesulfonyl)-S-phenylalanyl]-2,6-diaminohexanol]",16 nM
28,"Cc1ccc(S(=O)(=O)N[C@@H](Cc2c[nH]c3ccccc23)C(=O)NCCCC[C@@H](CO)N(CC(C)C)S(=O)(=O)c2ccc(C)cc2)cc1 [Example 97, (2S,2′S) 2-N-Isobutyl-2-N-(4-methylbenzenesulfonyl)-6-N-[N′α-(4-methylbenzenesulfonyl)-S-tryptophanyl]-2,6-diaminohexanol]",3.6 nM
29,"CC(=O)N[C@@H](Cc1c[nH]c2ccccc12)C(=O)NCCCC[C@@H](C(=O)O)N(CC(C)C)S(=O)(=O)c1ccc(C)cc1 [Example 99, Nα-Isobutyl-Nα-(4-methylbenzenesulfonyl)-Nε-(N′α-acetyl-L-tryptophanyl)-L-lysine]",0.438 nM
30,"Cc1ccc(S(=O)(=O)N(CC(C)C)[C@@H](CCCCNC(=O)[C@H](Cc2c[nH]c3ccccc23)NC(=O)C(C)(C)C)C(=O)O)cc1 [Example 100, Nα-Isobutyl-Nα-(4-methylbenzenesulfonyl)-Nε-(N′α-pivaloyl-L-tryptophanyl)-L-lysine]",0.388 nM

# Same assay, conditions: Anti-protease activity of Ne-amino acid substituted L-lysine derivatives and analogs of formula I; read-out: Ki
row,SMILES,Ki
1,"Cc1ccc(CSC[C@H](NC(=O)OC(C)(C)C)C(=O)NCCCC[C@@H](C(=O)O)N(CC(C)C)S(=O)(=O)c2ccc(C)cc2)cc1 [Example 83, Nα-Isobutyl-Nα-(4-methylbenzenesulfonyl)-Nε-[N′α-tert-butoxycarbonyl-S-(4-methylbenzyl)-L-cysteinyl]-L-lysine]",62 nM

# From patent publication US6610689B2, “HIV protease inhibitors based on amino acid derivatives” (priority 2001, dated 2003)
